The values that follow come from patent US5118392A, “Separation of trichloroethylene from a butyl alcohol by extractive distillation” (priority 1991, dated 1992).

Data set [1] in a line: Vapor-liquid equilibrium still, t-butanol-trichloroethylene azeotrope with extractive distillation agent. The class given is physicochemical. As to conditions: for Relative Volatility: trichloroethylene from t-butanol, Table 10. The text has this: (§1) The data in Tables 2, 3, 5, 7, 8, 10 and 11 was obtained in a vapor-liquid equilibrium still. In every case, the starting mixture was the trichloroethylene-butanol azeotrope. The relative volatilities are listed for each of the agents.
Seventy grams of the t-butanol-trichloroethylene azeotrope and 30 grams of n-butyl acetate were charged to the vapor-liquid equilibrium still and refluxed for fourteen hours.

Data set [2] is described as follows: Vapor-liquid equilibrium still, trichloroethylene-n-butanol azeotrope with extractive distillation agent. The class given is physicochemical.
A short description of data set [3]: Vapor-liquid equilibrium still, trichloroethylene-2-butanol azeotrope with extractive distillation agent. In kind it is physicochemical. Conditions: trichloroethylene from 2-butanol, Table 7.
Description: as §1
Seventy grams of the trichloroethylene-2-butanol azeotrope and 30 grams of 2-methyl-1-pentanol were charged to the vapor-liquid equilibrium still and refluxed for two hours.

Data set [4] can be described thus: Vapor-liquid equilibrium still, trichloroethylene-isobutanol azeotrope with extractive distillation agent. In kind it is physicochemical.
Description: as §1
Seventy grams of the trichloroethylene-isobutanol azeotrope and 30 grams of n-octanol were charged to the vapor-liquid equilibrium still and refluxed for five hours.

How the values of data set [5] were obtained: A solution comprising 170 grams of trichloroethylene and 30 grams of t-butanol was placed in the stillpot of the 7.3 theoretical plate glass perforated plate rectification column. When refluxing began, an extractive agent comprising n-butyl acetate was pumped into the column at a rate of 15 ml/min. The temperature of the extractive agent as it entered the column was 85° C. After establishing the feed rate of the extractive agent, the heat input to the trichloroethylene-t-butanol in the stillpot was adjusted to give a total reflux rate of 40 ml/min. After two hours of operation, the overhead and bottoms samples were collected and analysed.

The nature of data set [6]: Glass perforated plate rectification column (7.3 theoretical plates), trichloroethylene / isobutanol. In kind it is physicochemical. The text has this: The overhead analysis was 97.7% trichloroethylene, 2.3% isobutanol and the bottoms analysis was 84.8% trichloroethylene, 15.2% isobutanol. This gives an average relative volatility of 1.31 for each theoretical plate.

The mark [7] stands for this setting: trichloroethylene from n-butanol, Table 2.
Where [8] appears, read: trichloroethylene from isobutanol, Table 5.
The mark [9] stands for this setting: Example 7, refluxed fourteen hours.
The mark [10] stands for this setting: bottoms, 2 hrs, listed as n-butyl acetate.
Where [11] appears, read: overhead, 2 hrs, listed as n-butyl acetate.

Read-outs that look alike come from different tables or passages of the source.

Regarding 2-Methoxyethyl ether acetate, in data set [1], the “Relative Volatility” value is listed as 1.85.
On to `CC(=O)O[C@@H]1C[C@H]2CC[C@]1(C)C2(C)C` (racemic) [Isobornyl acetate], for which the “Relative Volatility” value in data set [2] (setting [7]) is reported as 1.25.
For `COCC(C)OC(C)=O` (centres unmarked) [1-Methoxy-2-propanol acetate], the “Relative Volatility” value is 1.5 in data set [2] and 1.65 in data set [1].
On to `COCC(C)O` (centres unmarked) [1-Methoxy-2-propanol], for which the “Relative Volatility” value in data set [1] is recorded as 1.65.
With `CCCCCCCCO` [1-Octanol], in data set [3], the “Relative Volatility” value came out at 1.5.
With `CC(=O)CC(C)=O` [2,4-Pentanedione], the “Relative Volatility” value in data set [1] is listed as 1.4.
Take `CC(C)CC(=O)CC(C)C` [2,6-Dimethyl-4-heptanone]: the “Relative Volatility” value in data set [2] (setting [7]) came to 1.35.
In the case of `CCC(CC)CO` [2-Ethyl butanol], the “Relative Volatility” value in data set [3] is recorded as 1.85.
`CCCCC(CC)CO` (centres unmarked) [2-Ethyl-1-hexanol]: the “Relative Volatility” value in data set [3] is recorded as 1.55.
As for `CCCCCC(C)=O` [2-Heptanone], the “Relative Volatility” value in data set [2] (setting [7]) is listed as 1.7.
Same read-out and setting: the same measure for `CCCC(C)CO` (centres unmarked) [2-Methyl pentanol]: 3.5.
In the case of `CCCCCCC(C)O` (centres unmarked) [2-Octanol], the “Relative Volatility” value in data set [4] (setting [8]) worked out at 2.7.
`CCCCCCC(C)=O` [2-Octanone]: the “Relative Volatility” value in data set [2] (setting [7]) is 1.4.
Turning to `CCCC(C)=O` [2-Pentanone], the “Relative Volatility” value in data set [1] was determined as 1.9.
As for `CCCCC(=O)CC` [3-Heptanone], the “Relative Volatility” value in data set [1] stood at 1.35.
Regarding `CCCC(=O)CC` [3-Hexanone], the “Relative Volatility” value in data set [1] turned out to be 1.55.
Turning to `CCC(C)(O)CC` [3-Methyl-3-pentanol], in data set [3], the “Relative Volatility” value was 1.35.
With `CCCCCC(=O)CC` [3-Octanone], the “Relative Volatility” value in data set [2] (setting [7]) came out at 1.35.
Take `OCCCc1ccccc1` [3-Phenyl-1-propanol]: the “Relative Volatility” value in data set [3] is 1.65.
For the compound `CC(C)CC(C)O` (centres unmarked) [4-Methyl-2-pentanol], the “Relative Volatility” value in data set [4] (setting [8]) came to 2.7.
Turning to `CC(=O)CC(C)C` [4-Methyl-2-pentanone], the “Relative Volatility” value in data set [1] was 1.5.
In the case of `CC(=O)CCC(C)C` [5-Methyl-2-hexanone], the “Relative Volatility” value in data set [2] (setting [7]) is reported as 1.6; in data set [1] it was 1.3.
Consider `CC(=O)CCC(C)=O` [Acetonylacetone], for which the “Relative Volatility” value in data set [2] (setting [7]) came to 2.6.
As to `CC(=O)c1ccccc1` [Acetophenone], the “Relative Volatility” value in data set [2] (setting [7]) is 1.6.
For the compound `OCc1ccccc1` [Benzyl alcohol], the “Relative Volatility” value in data set [2] (setting [7]) is listed as 3.5; in data set [4] (setting [8]), 2.0.
With `OC1CCCCC1` [Cyclohexanol], the “Relative Volatility” value is 3.5 in data set [2] and 2.4 in data set [4] (setting [8]).
Consider `CC(=O)CC(C)(C)O` [Diacetone alcohol], for which the “Relative Volatility” value amounted to 1.3 in data set [4] (setting [8]) and 1.45 in data set [3].
Take `CC(C)CC(O)CC(C)C` [Diisobutyl carbinol]: the “Relative Volatility” value in data set [2] (setting [7]) worked out at 1.4; in data set [4] (setting [8]) it was 1.6; in data set [3], 1.35.
For `CC(C)CC(=O)CC(C)C` [Diisobutyl ketone], the “Relative Volatility” value in data set [2] (setting [7]) and in data set [1] was 1.4 each time.
In the case of `CN(C)C=O` [Dimethylformamide], in data set [2], the “Relative Volatility” value turned out to be 4.5.
On to `CCCC(=O)OCC` [Ethyl butyrate], for which, in data set [1], the “Relative Volatility” value stood at 1.5.
Same read-out and setting: the value for `CCOCCC(=O)OCC` [Ethyl ethoxy propionate] was 1.45.
In the case of `CCOC(=O)CC(C)C` [Ethyl isovalerate], the “Relative Volatility” value in data set [2] (setting [7]) was found to be 1.45; in data set [1] it was 1.5.
Turning to `CCOC(=O)CC` [Ethyl propionate], the “Relative Volatility” value in data set [1] was 2.4.
With `CCCCC(=O)OCC` [Ethyl valerate], the “Relative Volatility” value turned out to be 3.0 in data set [2] (setting [7]) and 1.65 in data set [1].
As for `CCCCCCCO` [Heptyl alcohol], the “Relative Volatility” value amounted to 1.95 in data set [4] (setting [8]) and 1.55 in data set [3].
For the compound `CCCCCCOC(C)=O` [Hexyl acetate], the “Relative Volatility” value in data set [1] amounted to 1.4.
In the case of `CCCCCCO` [Hexyl alcohol], the “Relative Volatility” value in data set [3] was determined as 2.6.
Take `CC(=O)OCCC(C)C` [Isoamyl acetate]: in data set [1], the “Relative Volatility” value stood at 1.5.
On to `CC(C)CCO` [Isoamyl alcohol], for which, in data set [4] (setting [8]), the “Relative Volatility” value was found to be 1.9.
Turning to `CC(=O)OCC(C)C` [Isobutyl acetate], in data set [1], the “Relative Volatility” value worked out at 1.4.
Consider `CCCC(=O)OCC(C)C` [Isobutyl butyrate], for which the “Relative Volatility” value in data set [1] came out at 1.65.
For `CC(C)COC(=O)C(C)C` [Isobutyl isobutyrate], the entries for the “Relative Volatility” value in data set [2] and in data set [1] were 1.5 and 1.45, respectively.
For `CC(C)CCCCCCCO` [Isodecyl alcohol], the “Relative Volatility” value in data set [2] was 3.6.
Turning to `CC(C)CCCO` [Isohexyl alcohol], in data set [4] (setting [8]), the “Relative Volatility” value is 2.6.
For `CC(C)CCCCCCO` [Isononyl alcohol], in data set [3], the “Relative Volatility” value turned out to be 1.35.
Consider `CC(C)CCCCCO` [Isooctanol], for which the “Relative Volatility” value in data set [4] (setting [8]) worked out at 1.6.
With `CC(C)CCCCCO` [Isooctyl alcohol], in data set [3], the “Relative Volatility” value came out at 1.7.
For the compound `CC1=CC(=O)CC(C)(C)C1` [Isophorone], the “Relative Volatility” value in data set [2] (setting [7]) is recorded as 1.45; in data set [4] (setting [8]) it was 1.6.
Consider `CC(=O)CCC(C)C` [Methyl isoamyl ketone], for which the “Relative Volatility” value in data set [1] was 1.4.
For `CC(C)CC(C)O` (centres unmarked) [Methyl isobutyl carbinol], the “Relative Volatility” value in data set [2] (setting [7]) came out at 2.4.
`CC(=O)CC(C)C` [Methyl isobutyl ketone]: the “Relative Volatility” value in data set [1] was 1.3.
As to `CC(=O)C(C)C` [Methyl isopropyl ketone], in data set [1], the “Relative Volatility” value worked out at 1.3.
Regarding `CCCCCCCCCO` [Nonyl alcohol], the “Relative Volatility” value in data set [4] (setting [8]) was found to be 3.8.
On to `OCCc1ccccc1` [Phenethyl alcohol], for which the figures for the “Relative Volatility” value in data set [2] (setting [7]) and in data set [4] (setting [8]) were 2.5 and 1.55, respectively.
For `O=S1(=O)CCCC1` [Sulfolane], the “Relative Volatility” value in data set [2] (setting [7]) was 2.5.
`OCC1CCCO1` (centres unmarked) [Tetrahydrofurfuryl alcohol]: the “Relative Volatility” value in data set [2] is 2.2; in data set [4] (setting [8]), 2.4; in data set [3] it was 1.65.
For the compound `CCCCCOC(C)=O` [n-Amyl acetate], in data set [1], the “Relative Volatility” value was found to be 1.7.
Turning to `CCCCOC(C)=O` [n-Butyl acetate], the “liquid composition, t-butanol” value in data set [1] (setting [9]) is on record as 31.7%. For the same compound, in data set [1] (setting [9]), the “liquid composition, trichloroethylene” value is given as 68.3%. For the same compound, the “vapor composition, t-butanol” value in data set [1] (setting [9]) was 55.5%. Further, the “vapor composition, trichloroethylene” value in data set [1] (setting [9]) is reported as 44.5%. Besides, in data set [1] (Example 7: 70 g azeotrope, 30 g agent, refluxed fourteen hours), the “relative volatility of t-butanol to trichloroethylene” value is recorded as 1.7. For the same compound, the “Relative Volatility” value in data set [1] was 1.7. Moreover, the “Relative Volatility (per theoretical plate)” value in data set [5] (1 hr) was found to be 1.63. Further, the “Relative Volatility (average, t-butanol to trichloroethylene, per theoretical plate)” value in data set [5] (2 hrs) is 2.15. Also, the “Weight % C2 H Cl3” value in data set [5] (bottoms, 1 hr) is given as 6.1%; in data set [5] (bottoms, 2 hrs), 4.1%; in data set [5] (setting [10]), 95.9%; in data set [5] (overhead, 1 hr), 70.3%; in data set [5] (overhead, 2 hrs), 92.2%; in data set [5] (setting [11]), 7.8%. Also, the “Weight % t-Butanol” value in data set [5] (bottoms, 1 hr) is given as 93.9%; in data set [5] (bottoms, 2 hrs), 95.9%; in data set [5] (setting [10]), 4.1%; in data set [5] (overhead, 1 hr) it was 29.7%; in data set [5] (overhead, 2 hrs), 7.8%; in data set [5] (setting [11]), 92.2%.
For `CCCCCCCCCCO` [n-Decanol], the “Relative Volatility” value in data set [2] (setting [7]) came to 2.4; in data set [4] (setting [8]) it was 3.9.
Turning to `CCCCCCO` [n-Hexyl alcohol], the “Relative Volatility” value in data set [2] (setting [7]) stood at 3.1.
On the same count and under the same terms, the value for `CCCCCCCCCO` [n-Nonyl alcohol] was 2.5.
Consider `CCCCCCCCO` [n-Octanol], for which the “Relative Volatility (per theoretical plate)” value in data set [6] (1 hr) is recorded as 1.275. In addition, the “Relative Volatility (average, per theoretical plate)” value in data set [6] (2 hrs) worked out at 1.31. For the same compound, the “Weight % C2 H Cl3” value came out at 84.0% in data set [6] (bottoms, 1 hr); 84.8% in data set [6] (bottoms, 2 hrs); 96.9% in data set [6] (overhead, 1 hr); 97.7% in data set [6] (overhead, 2 hrs). Besides, the “Weight % Isobutanol” value amounted to 16.0% in data set [6] (bottoms, 1 hr); 15.2% in data set [6] (bottoms, 2 hrs); 3.1% in data set [6] (overhead, 1 hr); 2.3% in data set [6] (overhead, 2 hrs). Moreover, the “Relative Volatility” value in data set [2] (setting [7]) is reported as 2.3; in data set [4] (Example 3: 70 g azeotrope, 30 g agent, refluxed five hours), 1.3; in data set [4] (setting [8]) it was 1.3. Further, the “liquid composition, isobutanol” value in data set [4] (Example 3, refluxed five hours) is 6.1%. In addition, the “liquid composition, trichloroethylene” value in data set [4] (Example 3, refluxed five hours) was 93.9%. Also, the “vapor composition, isobutanol” value in data set [4] (Example 3, refluxed five hours) was 4.6%. The “vapor composition, trichloroethylene” value in data set [4] (Example 3, refluxed five hours) was determined as 95.4%.
As to `CCCOC(C)=O` [n-Propyl acetate], the “Relative Volatility” value in data set [1] was 2.9.
